# US20250230193A1, “CYCLIC COMPOUND HAVING SELECTIVE KRAS INHIBITORY EFFECT ON HRAS AND NRAS” (CHUGAI SEIYAKU KABUSHIKI KAISHA, priority 2022, published 2025)
# How the values were obtained:
# [1] = target: GDP-bound NRAS wild-type protein (Homo sapiens, UniProt P01111); test: Binding to NRAS by surface plasmon resonance (SPR), Single Cycle Kinetics; details: SPR; KD ratio class
# [2] = target: GDP-bound HRAS wild-type protein (Homo sapiens, UniProt P01112); test: Binding to HRAS by surface plasmon resonance (SPR), Single Cycle Kinetics; details: SPR; KD ratio class
# Chain of GDP-bound HRAS wild-type protein (P01112 whole entry): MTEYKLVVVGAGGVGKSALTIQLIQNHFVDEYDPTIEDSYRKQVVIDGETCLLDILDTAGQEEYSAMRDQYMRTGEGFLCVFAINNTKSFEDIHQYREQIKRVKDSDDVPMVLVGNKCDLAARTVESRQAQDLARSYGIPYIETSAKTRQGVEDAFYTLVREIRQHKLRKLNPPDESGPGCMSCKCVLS
# [3] = tested on: human lung cancer strain NCI-H441; test: cells; details: NCI-H441, 96 h, read-out: NCI-H441 IC50 (nM)
# Chain of GDP-bound NRAS wild-type protein (P01111 whole entry): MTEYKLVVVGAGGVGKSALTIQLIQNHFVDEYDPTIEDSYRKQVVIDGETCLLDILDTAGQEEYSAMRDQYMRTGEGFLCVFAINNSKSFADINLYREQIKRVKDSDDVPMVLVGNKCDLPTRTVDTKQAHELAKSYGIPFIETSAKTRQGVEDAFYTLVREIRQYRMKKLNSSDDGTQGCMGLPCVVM
Structure (SMILES),IC50 [3] [nM],NRAS/KRAS (ratio of KD value for GDP-bound NRAS wild-type protein to KD value for KRAS) [1],HRAS/KRAS (ratio of KD value for GDP-bound HRAS wild-type protein to KD value for KRAS) [2]
CCO[C@@H]1C[C@H]2C(=O)NC3(CC(C)(C)C3)C(=O)N(C)[C@@H](C3CCCC3)C(=O)N(C)[C@H](C(=O)N(C)C)CC(=O)N(C)[C@@H](CC3CC3)C(=O)N[C@@H]([C@@H](C)CC)C(=O)N(C)CC(=O)N(C)[C@H]3C/C=C\CCN(C3=O)[C@@H](Cc3ccc(C(F)(F)F)cc3)C(=O)N(C)CC(=O)N[C@@H](CCc3cc(F)c(C(F)(F)F)c(F)c3)C(=O)N2C1 [PP1568],2.2,A (a compound having 10 or more and less than 20 is denoted as A),A (a compound having 10 or more and less than 20 is denoted as A)
CCCOC[C@H]1C(=O)N[C@@H]([C@@H](C)CC)C(=O)N(C)CC(=O)N(C)[C@H]2C/C=C\CCN(C2=O)[C@@H](Cc2ccc(C(F)(F)F)cc2)C(=O)N(C)CC(=O)N[C@@H](CCc2cc(F)c(C(F)(F)F)c(F)c2)C(=O)N2C[C@H](OCC)C[C@H]2C(=O)NC2(CCC2)C(=O)N(C)[C@@H](C2CCCC2)C(=O)N(C)[C@H](C(=O)N(C)CC)CC(=O)N1C [PP1569],2.8,A (a compound having 10 or more and less than 20 is denoted as A),B (a compound having 3 or more and less than 10 is denoted as B)
CC[C@H](C)[C@@H]1NC(=O)[C@H](CC2CC2)N(C)C(=O)C[C@@H](C(=O)N(C)CC)N(C)C(=O)[C@H](C2CCCC2)N(C)C(=O)C2(CC(C)(C)C2)NC(=O)[C@@H]2C[C@@H](F)CN2C(=O)[C@H](CCc2cc(F)c(C(F)(F)F)c(F)c2)NC(=O)CN(C)C(=O)[C@H](Cc2ccc(C(F)(F)F)cc2)N2CC/C=C\C[C@@H](C2=O)N(C)C(=O)CN(C)C1=O [PP1570],2.6,AA (a compound having 20 or more is denoted as AA),A (a compound having 10 or more and less than 20 is denoted as A)

# The next lines start with results.
IC50 [3] [nM],Structure (SMILES),NRAS/KRAS (ratio of KD value for GDP-bound NRAS wild-type protein to KD value for KRAS) [1],HRAS/KRAS (ratio of KD value for GDP-bound HRAS wild-type protein to KD value for KRAS) [2]
6.8,CC[C@H](C)[C@@H]1NC(=O)[C@H](CC2CC2)N(C)C(=O)C[C@@H](C(=O)N(CC)CC)N(C)C(=O)[C@H](C2CCCC2)N(C)C(=O)C2(CC(C)(C)C2)NC(=O)[C@@H]2C[C@@H](F)CN2C(=O)[C@H](CCc2cc(F)c(C(F)(F)F)c(F)c2)NC(=O)CN(C)C(=O)[C@H](Cc2ccc(C(F)(F)F)cc2)N2CC/C=C\C[C@@H](C2=O)N(C)C(=O)CN(C)C1=O [PP1571],A (a compound having 10 or more and less than 20 is denoted as A),A (a compound having 10 or more and less than 20 is denoted as A)
3.6,CCCOC[C@H]1C(=O)N[C@@H]([C@@H](C)CC)C(=O)N(C)CC(=O)N(C)[C@H]2C/C=C\CCN(C2=O)[C@@H](Cc2ccc(C(F)(F)F)cc2)C(=O)N(C)CC(=O)N[C@@H](CCc2cc(F)c(C(F)(F)F)c(F)c2)C(=O)N2C[C@H](OCC)C[C@H]2C(=O)NC2(CC(C)(C)C2)C(=O)N(C)[C@@H](C2CCCC2)C(=O)N(C)[C@H](C(=O)N(C)CC)CC(=O)N1C [PP1572],A (a compound having 10 or more and less than 20 is denoted as A),A (a compound having 10 or more and less than 20 is denoted as A)
5.2,CCO[C@@H]1C[C@H]2C(=O)NC3(CCC3)C(=O)N(C)[C@@H](C3CCCC3)C(=O)N(C)[C@H](C(=O)N(C)CC)CC(=O)N(C)[C@@H](CC3CCCC3)C(=O)N[C@@H]([C@@H](C)CC)C(=O)N(C)CC(=O)N(C)[C@H]3C/C=C\CCN(C3=O)[C@@H](Cc3ccc(C(F)(F)F)cc3)C(=O)N(C)CC(=O)N[C@@H](CCc3ccc(C(F)(F)F)c(OC)c3)C(=O)N2C1 [PP1573],A (a compound having 10 or more and less than 20 is denoted as A),A (a compound having 10 or more and less than 20 is denoted as A)
